{"source": "patent US20060193853A1", "about": "“Combinations of growth-and hormone-regulating factors for the treatment of neoplasia” (priority 2002, published 2006)", "test_system": "tumor cell line Dunning R3327-G", "assay": "Tumor reduction in Copenhagen rats implanted with tumor cell line Dunning R3327-G (tumor weight at sacrifice)", "type": "in vivo", "conditions": "three months following the tumor line implant", "protocol": "Tumor cell line Dunning R3327-G was implanted into 9-12 weeks old Copenhagen rats (with approximately 100 g of body weight each), which were subjected to different treatments with 2×10^6 cell density per animal in implant medium (RPMI 1640, serum-free in 0.5 ml), on the laxed area of the flanks. One hundred percent attachment efficiency was accomplished in the animals after 90 days.\nEight groups of ten animals each one were formed for the experiment, with Copenhagen rats as described before. […]\nDES treatment was made on and off, three times a week at a rate of 1 mg/kg/day, as long as the experiment lasted; and it started once the cells were inoculated. […] (1) The expected effect (Etheoretical) in the case of double combination formulations can be calculated in case either effect is not mutually excluding (Caridad W., Guerra Bustillo, Ernesto Menendez Acuna, Rolando Barrera Morena, Esteban Egana Morales. “Estadistica”, Editorial Pueblo y Educacion, 1989), according to: Etheoretical=ET1+ET2−(ET1*ET2). […]", "data": [{"smiles": "CC/C(=C(/CC)c1ccc(O)cc1)c1ccc(O)cc1", "note": "[DES, dietilestilbestrol]", "values": [{"measurement": "Treatment effect. Etreatment=1-(Ptreatment/Pplacebo)", "setting": "relative to placebo mean tumor weight", "value": 0.597}, {"measurement": "Tumor weight (g) (Mean of ten animals)", "setting": "tumor dried and weighed", "value": 12.66, "unit": "g"}]}]}
